Reference: US11535621B2, “Heterobicyclic amides as inhibitors of CD38” (Ribon Therapeutics, Inc., priority 2019, dated 2022)
pIC50: −log10 of the molar value.

Target: Human CD38 (Homo sapiens (Human), UniProt P28907)
Test: CD38 enzyme assay
Assay type: biochemical
Details: 2 nM CD38, NAD+ substrate, absorbance at 405 nm
In short: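 IC50 values come from fitting % inhibition against compound concentration with a 4-parameter logistic, or a 3-parameter fit with top/bottom fixed at 100/0 or Hill at 1. Inhibition is scaled between DMSO wells and positive-control wells treated with a quinolinone CD38 inhibitor.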

Chain of Human CD38 (P28907 whole entry): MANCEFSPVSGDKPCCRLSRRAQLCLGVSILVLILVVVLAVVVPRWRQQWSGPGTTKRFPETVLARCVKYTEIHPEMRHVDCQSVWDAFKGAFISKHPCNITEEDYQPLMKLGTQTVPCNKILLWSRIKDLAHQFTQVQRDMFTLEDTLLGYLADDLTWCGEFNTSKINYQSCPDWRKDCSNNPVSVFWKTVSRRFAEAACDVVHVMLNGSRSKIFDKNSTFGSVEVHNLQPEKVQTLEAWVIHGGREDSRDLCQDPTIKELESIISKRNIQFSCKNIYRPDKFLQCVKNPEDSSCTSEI

| SMILES | pIC50 |
| --- | --- |
| O=C(Nc1ccc(OCCN2CCCC2)nc1)c1nc(-n2ccnc2)cc2cn[nH]c12 [Example 203, 5-(1H-imidazol-1-yl)-N-(6-(2-(pyrrolidin-1-yl)ethoxy)pyridin-3-yl)-1H-pyrazolo[3,4-c]pyridine-7-carboxamide] | 7.00 to 8.00 |
| O=C(N[C@H]1CC[C@H](N2CC(F)(F)C2)CC1)c1nc(-n2ccnc2)nc2cc[nH]c12 [Example 204, N-((1r,4r)-4-(3,3-difluoroazetidin-1-yl)cyclohexyl)-2-(1H-imidazol-1-yl)-5H-pyrrolo[3,2-d]pyrimidine-4-carboxamide] | 7.00 to 8.00 |
| N#Cc1ccc(NC(=O)c2nc(-n3ccnc3)cc3cn[nH]c23)cc1 [Example 205, N-(4-cyanophenyl)-5-(1H-imidazol-1-yl)-1H-pyrazolo[3,4-c]pyridine-7-carboxamide] | > 8.00 |
| O=C(N[C@H]1CC[C@H](NCC(F)F)CC1)c1nc(-n2ccnc2)nc2cn[nH]c12 [Example 206, N-((1r,4r)-4-(2,2-difluoroethylamino)cyclohexyl)-5-(1H-imidazol-1-yl)-1H-pyrazolo[4,3-d]pyrimidine-7-carboxamide] | 7.00 to 8.00 |
| CC(=O)NC[C@H]1CC[C@H](NC(=O)c2nc(-n3ccnc3)cc3cn[nH]c23)CC1 [Example 209, N-((1r,4r)-4-(acetamidomethyl)cyclohexyl)-5-(1H-imidazol-1-yl)-1H-pyrazolo[3,4-c]pyridine-7-carboxamide] | 7.00 to 8.00 |
| CC(C)(O)[C@H]1CC[C@H](NC(=O)c2nc(-n3ccnc3)nc3ccsc23)CC1 [Example 210, N-((1r,4r)-4-(2-hydroxypropan-2-yl)cyclohexyl)-2-(1H-imidazol-1-yl)thieno[3,2-d]pyrimidine-4-carboxamide] | > 8.00 |
| O=C(Nc1ccc2c(c1)CNC2)c1nc(-n2ccnc2)nc2cc[nH]c12 [Example 211, 2-(1H-imidazol-1-yl)-N-(isoindolin-5-yl)-5H-pyrrolo[3,2-d]pyrimidine-4-carboxamide] | > 8.00 |
| N#Cc1ccc(O[C@H]2CC[C@H](NC(=O)c3nc(-n4ccnc4)nc4cc[nH]c34)CC2)cc1 [Example 212, N-((1r,4r)-4-(4-cyanophenoxy)cyclohexyl)-2-(1H-imidazol-1-yl)-5H-pyrrolo[3,2-d]pyrimidine-4-carboxamide] | > 8.00 |
| CS(=O)(=O)[C@H]1CC[C@H](NC(=O)c2nc(-n3ccnc3)nc3cc[nH]c23)CC1 [Example 213, 2-(1H-imidazol-1-yl)-N-((1r,4r)-4-(methylsulfonyl)cyclohexyl)-5H-pyrrolo[3,2-d]pyrimidine-4-carboxamide] | 7.00 to 8.00 |
| N#CCO[C@H]1CC[C@H](NC(=O)c2nc(-n3ccnc3)nc3cn[nH]c23)CC1 [Example 214, N-((1r,4r)-4-(cyanomethoxy)cyclohexyl)-5-(1H-imidazol-1-yl)-1H-pyrazolo[4,3-d]pyrimidine-7-carboxamide] | > 8.00 |
| N#CCO[C@H]1CC[C@H](NC(=O)c2nc(-n3ccnc3)cc3cn[nH]c23)CC1 [Example 215, N-((1r,4r)-4-(cyanomethoxy)cyclohexyl)-5-(1H-imidazol-1-yl)-1H-pyrazolo[3,4-c]pyridine-7-carboxamide] | > 8.00 |
| O=C(N[C@H]1CC[C@H](NC2COC2)CC1)c1nc(-n2ccnc2)nc2cc[nH]c12 [Example 216, 2-(1H-imidazol-1-yl)-N-((1r,4r)-4-(oxetan-3-ylamino)cyclohexyl)-5H-pyrrolo[3,2-d]pyrimidine-4-carboxamide] | 7.00 to 8.00 |
| CNC(=O)[C@H]1CC[C@H](NC(=O)c2nc(-n3ccnc3)cc3cn[nH]c23)CC1 [Example 217, 5-(1H-imidazol-1-yl)-N-((1r,4r)-4-(methylcarbamoyl)cyclohexyl)-1H-pyrazolo[3,4-c]pyridine-7-carboxamide] | > 8.00 |
| CN(CC(F)(F)F)[C@H]1CC[C@H](NC(=O)c2nc(-n3ccnc3)cc3cn[nH]c23)CC1 [Example 218, 5-(1H-imidazol-1-yl)-N-((1r,4r)-4-(methyl(2,2,2-trifluoroethyl)amino)cyclohexyl)-1H-pyrazolo[3,4-c]pyridine-7-carboxamide] | 7.00 to 8.00 |
| N#CC[C@H]1CC[C@H](NC(=O)c2nc(-n3ccnc3)cc3cn[nH]c23)CC1 [Example 219, N-((1r,4r)-4-(cyanomethyl)cyclohexyl)-5-(1H-imidazol-1-yl)-1H-pyrazolo[3,4-c]pyridine-7-carboxamide] | > 8.00 |
| O=C(N[C@H]1CC[C@H](NCC(F)(F)F)CC1)c1nc(-n2ccnc2)nc2ccsc12 [Example 220, 2-(1H-imidazol-1-yl)-N-((1r,4r)-4-(2,2,2-trifluoroethylamino)cyclohexyl)thieno[3,2-d]pyrimidine-4-carboxamide] | 7.00 to 8.00 |
| O=C(N[C@H]1CC[C@H](NCC(F)F)CC1)c1nc(-n2ccnc2)nc2ccsc12 [Example 221, N-((1r,4r)-4-(2,2-difluoroethylamino)cyclohexyl)-2-(1H-imidazol-1-yl)thieno[3,2-d]pyrimidine-4-carboxamide] | 7.00 to 8.00 |
| O=C(N[C@H]1CC[C@H](NCCC(F)(F)F)CC1)c1nc(-n2ccnc2)nc2ccsc12 [Example 222, 2-(1H-imidazol-1-yl)-N-((1r,4r)-4-((3,3,3-trifluoropropyl)amino)cyclohexyl)thieno[3,2-d]pyrimidine-4-carboxamide] | 7.00 to 8.00 |
| CN(C)CCOc1ccc(NC(=O)c2nc(-n3ccnc3)cc3cn[nH]c23)cn1 [Example 223, N-(6-(2-(dimethylamino)ethoxy)pyridin-3-yl)-5-(1H-imidazol-1-yl)-1H-pyrazolo[3,4-c]pyridine-7-carboxamide] | 7.00 to 8.00 |
| O=C(Nc1ccc(N2CCNCC2)nc1)c1nc(-n2ccnc2)cc2cn[nH]c12 [Example 224, 5-(1H-imidazol-1-yl)-N-(6-(piperazin-1-yl)pyridin-3-yl)-1H-pyrazolo[3,4-c]pyridine-7-carboxamide] | > 8.00 |
| O=C(N[C@H]1CC[C@H](CO)CC1)c1nc(-n2ccnc2)cc2cn[nH]c12 [Example 225, N-((1r,4r)-4-(hydroxymethyl)cyclohexyl)-5-(1H-imidazol-1-yl)-1H-pyrazolo[3,4-c]pyridine-7-carboxamide] | > 8.00 |
| C[C@]1(O)CC[C@@H](NC(=O)c2nc(-n3ccnc3)cc3cn[nH]c23)CC1 [Example 226, N-((1s,4s)-4-hydroxy-4-methylcyclohexyl)-5-(1H-imidazol-1-yl)-1H-pyrazolo[3,4-c]pyridine-7-carboxamide] | 7.00 to 8.00 |
| O=C(N[C@H]1CC[C@H](N2CC(F)(F)C2)CC1)c1nc(-n2ccnc2)cc2cn[nH]c12 [Example 227, N-((1r,4r)-4-(3,3-difluoroazetidin-1-yl)cyclohexyl)-5-(1H-imidazol-1-yl)-1H-pyrazolo[3,4-c]pyridine-7-carboxamide] | 7.00 to 8.00 |
| O=C(N[C@H]1CC[C@H](C2(O)CC2)CC1)c1nc(-n2ccnc2)cc2cn[nH]c12 [Example 228, N-((1r,4r)-4-(1-hydroxycyclopropyl)cyclohexyl)-5-(1H-imidazol-1-yl)-1H-pyrazolo[3,4-c]pyridine-7-carboxamide] | > 8.00 |
| O=C(Nc1ccc(C(F)(F)F)nc1)c1nc(-n2ccnc2)cc2cn[nH]c12 [Example 229, 5-(1H-imidazol-1-yl)-N-(6-(trifluoromethyl)pyridin-3-yl)-1H-pyrazolo[3,4-c]pyridine-7-carboxamide] | > 8.00 |
